Target: T1, human farnesyl transferase purified from THP1 cell cultures (Homo sapiens, UniProt P49354+P49356)
T1 construct: human farnesyl transferase purified from THP1 cell cultures; endogenous in cells; host or cells: THP1 cell cultures (enzyme purified from them)
Test: Farnesyl transferase inhibition: [3H]farnesyl transfer from [3H]FPP to p21 H-ras
Type: biochemical
Conditions: 20 minutes at 37° C., 9 concentrations, each test repeated 3 times, read-out: Inhibitory activity IC50
Procedure: Farnesyl transferase activity is determined by the quantity of [^3 H]farnesyl transferred from [^3 H]farnesyl pyrophosphate [[^3 H]FPP) to the p21 H-ras protein. The standard reaction mixture is composed, for a final volume of 60 μl, of 50 mM Tris-HCl, 5 mM MgCl2, 5 mM dithiotreitol, 0.2% octyl β-D-glucopyranoside, 200 picomol p21 H-ras, 4.5 picomol [^3 H]FPP (activity 61000 dpm/picomol).
Reaction is initiated by adding approximately 5 ng of human farnesyl transferase purified from THP1 cell cultures. After incubation for 20 minutes at 37° C. in a microtitration plate containing 96 1-cm^3 wells per plate (Titer Plate®, Beckman), the reaction is stopped by adding 0.4 cm^3 of 0.1% SDS in methanol at 0° C. The mixture is then treated with 0.4 cm^3 of 30% trichloroacetic acid® (TCA) in methanol. The plates are left in ice for 1 hour. […] The membranes are dried in a microwave oven, then impregnated with scintillation medium by melting Meltilex® (Pharmacia) under hot air, and lastly counted in cpm in a β-Plate® counter (LKB). […]
The percentage inhibition values are obtained by comparison of the tests with and without inhibitor after deduction of blanks, the IC50 values being measured on the basis of the inhibitions obtained with 9 different concentrations using Enzfitter® or Grafit® software.

Substance | IC50 [nM]
Cys-(N-Me)Val-[cis-3-phenyl-DL-prolyl]-Met | 15.5
Cys-(N-Me)Val-[trans-3-phenyl-DL-prolyl]-Met | 920

From patent US5856439A, “Farnesyl transferase inhibitors, preparation thereof, and pharmaceutical compositions containing same” (Rhone-Poulenc Rorer S.A., priority 1995, dated 1999)
